# Results from US20250186448A1 (Mezzion Pharma Co., Ltd., priority 2021, published 2025).
# “And” between values parts separate entries of the source, which are not always exact repeats. Equal values may be shown once. “Also recorded” adds a separate entry of the source.
# Key:
# [1] = test system: adolescents with Fontan physiology; assay: FUEL trial: safety, adverse event reports; type: in vivo, human
# Text: The primary outcome was the change in oxygen consumption at peak exercise (max or peak VO2) from baseline to the 26-week visit. Secondary exercise outcomes included change in additional measures at maximal exertion, as well as change in measures of submaximal exercise at the ventilatory anaerobic threshold (VAT). The primary outcome for clinical secondary aims included change in myocardial performance index (MPI), an echocardiographically-derived measure of systolic and diastolic ventricular function, change in log-transformed reactive hyperemia index (lnRHI), a PAT-derived measure of peripheral vascular function, and change in log-transformed serum BNP level. Safety was monitored through adverse event reports, which were collected according to a pre-specified protocol of study coordinator outreach, and through ad hoc patient and family communication with members of the study team at each site.
# The primary outcome for clinical secondary aims included the between group differences in change in myocardial performance index (MPI), an echocardiographically-derived measure of systolic and diastolic ventricular function, change in log-transformed reactive hyperemia index (lnRHI), a PAT-derived measure of peripheral vascular function, and change in log-transformed serum BNP level. Measurements for each of these secondary outcomes were performed at core labs. Safety was monitored through adverse event reports, which were collected according to a pre-specified protocol of study coordinator outreach, and through ad hoc patient and family communication with members of the study team at each site.
# [2] = test system: adolescents with Fontan physiology; assay: FUEL trial: resting data and cardiopulmonary exercise test (CPET), cycle ergometer ramp protocol; type: in vivo, human; conditions: for Anaerobic threshold VE/VCO2 / Anaerobic threshold oxygen consumption / Anaerobic threshold work / Peak exercise heart rate / Peak exercise minute ventilation / Peak exercise oxygen consumption / Peak exercise oxygen saturation / Peak exercise respiratory rate / Peak exercise work rate / Resting diastolic blood pressure / Resting heart rate / Resting oxygen saturation / Resting systolic blood pressure: mean ± SD; for Resting oxygen saturation, change: p 0.002 vs placebo; for Resting diastolic blood pressure, change: p 0.003 vs placebo; for Anaerobic threshold VE/VCO2, change: p 0.011 vs placebo
# Text: Exercise testing can include assessment of VO2 values during maximal effort or at the ventilator anaerobic threshold (VAT). VO2 max, or maximal oxygen consumption, refers to the maximum amount of oxygen that an individual can utilize during intense exercise. This measurement is generally considered a reliable indicator of cardiovascular fitness and aerobic endurance. The more oxygen a person can use during high level exercise, the more energy that person can produce. This test has been the standard for cardiorespiratory fitness because muscles need oxygen for prolonged (aerobic) exercise; blood carries oxygen to the muscles and the heart must pump adequate amounts of blood to meet the demands of aerobic exercise.
# (§1) VO2 is often measured by putting a mask on a subject, and measuring the volume and gas concentrations of inhaled and expired air. This measurement is often used in both clinical settings and research and is considered the most accurate. Testing commonly involves either exercising on a treadmill or riding a cycle ergometer at increasing intensity until exhaustion, and is designed to provide readings at a maximal effort of the subject and/or at the subject's anaerobic threshold.
# Exercise testing can include assessment of VO2 values during maximal effort or at ventilator anaerobic threshold (“VAT”). VO2 max (“peak VO2”), or maximal (“peak”) oxygen consumption, refers to the maximum amount of oxygen that an individual can utilize during intense exercise. This measurement is generally considered a reliable indicator of cardiovascular fitness and aerobic endurance. Theoretically, the more oxygen a person can use during exercise, the more energy that person can produce. This test is often used for cardiorespiratory fitness because muscles need oxygen for prolonged (aerobic) exercise; blood carries oxygen to the muscles and the heart must pump adequate amounts of blood to meet the demands of aerobic exercise. However, while peak VO2 may be useful as a surrogate for many cardiovascular disease states, it may not be as relevant an endpoint after the Fontan operation. In this unique physiology, central venous pressure, rather than right ventricular contraction (pumping), is the primary driver of transpulmonary blood flow and, therefore, cardiac output. Gewillig M and Goldberg D J. Failure of the fontan circulation. Heart Fail Clin. 10(1):105-116 (January 2014); Egbe A C, Connolly H M, Miranda W R, Ammash N M, Hagler D J, Veldtman G R and Borlaug B A. Hemodynamics of Fontan Failure: The Role of Pulmonary Vascular Disease. Circ Heart Fail. 10(12): e004515 (September 2017); Gewillig M, Brown S C, Eyskens B, Heying R, Ganame J, Budts W, La Gerche A and Gorenflo M. The Fontan circulation: who controls cardiac output?Interact Cardiovasc Thorac Surg. 10(3):428-433 (March 2010); and Goldberg D J, Avitabile C M, McBride M G and Paridon S M. Exercise capacity in the Fontan circulation. Cardiol Young. 23(6):824-830 (December 2013). As the demand for cardiac output increases with exertion, central venous pressure in the Fontan circulation must rise to meet that demand, but eventually reaches a critical ceiling beyond which it can rise no further. Navaratnam D, Fitzsimmons S, Grocott M, Rossiter H B, Emmanuel Y, Diller G P, Gordon-Walker T, Jack S, Sheron N, Pappachan J, Pratap J N, Vettukattil J J and Veldtman G. Exercise-Induced Systemic Venous Hypertension in the Fontan Circulation. Am J Cardiol. 117(10):1667-1671 (May 15, 2016).
# as §1, with “research and has been considered the” for “research and is considered the”, “anaerobic threshold. […]” for “anaerobic threshold.”
# [3] = 87.5 mg twice daily, Change baseline to 26-week
# [4] = 87.5 mg twice daily, Change baseline to 26-week, listed as udenafil
# [5] = 87.5 mg twice daily, baseline to 26-week
structure (smiles),measurement,setting,value
"CCCOc1ccc(S(=O)(=O)NCCC2CCCN2C)cc1-c1nc2c(CCC)nn(C)c2c(=O)[nH]1 (centres unmarked) [Udenafil, udenafil]",Deaths in the study cohort,[1]; FUEL trial,no deaths
same,"Non-serious adverse event: Dizziness, participants","[1]; human, in vivo, 6 months",16 (8.0) n (%)
same,"Non-serious adverse event: Epistaxis, participants","[1]; human, in vivo, 6 months",21 (10.5) n (%)
same,"Non-serious adverse event: Flushing, participants","[1]; human, in vivo, 6 months",32 (16.0) n (%)
same,"Non-serious adverse event: Headache, participants","[1]; human, in vivo, 6 months",79 (39.5) n (%)
same,"Non-serious adverse event: Nausea/vomiting, participants","[1]; human, in vivo, 6 months",31 (15.5) n (%)
same,Participants who experienced a serious adverse event,"[1]; human, in vivo, 6 months",14
same,"Serious adverse events with possible, probable, or definite relationship to study drug, number of events","[1]; human, in vivo, 6 months",3
same,"Headache, facial flushing, abdominal pain, epistaxis, and erection (male participants), frequency vs placebo",[1]; in vivo,more common in the udenafil group
same,Priapism,[1]; in vivo,no reported episodes of priapism
same,"Non-serious adverse event: Increased erection, participants","[1]; male, human, in vivo, 6 months",13 (11.7) n (%)
same,"Multiple measures of exercise performance at the ventilatory anaerobic threshold, udenafil vs placebo",[2]; 87.5 mg twice daily,statistically significant improvements
same,Anaerobic threshold VE/VCO2,"[2]; 87.5 mg twice daily, 26-week",33.6 ± 4.8
same,Anaerobic threshold oxygen consumption,"[2]; 87.5 mg twice daily, 26-week",1059 ± 292 mL/min
same,Anaerobic threshold work,"[2]; 87.5 mg twice daily, 26-week",69.2 ± 26 W
same,Peak exercise heart rate,"[2]; 87.5 mg twice daily, 26-week",165 ± 20 bpm
same,Peak exercise minute ventilation,"[2]; 87.5 mg twice daily, 26-week",73 ± 22 L/min
same,Peak exercise oxygen consumption,"[2]; 87.5 mg twice daily, 26-week",1606 ± 452 mL/min
same,Peak exercise oxygen saturation,"[2]; 87.5 mg twice daily, 26-week",89.6 ± 4.9%
same,Peak exercise respiratory rate,"[2]; 87.5 mg twice daily, 26-week",50 ± 12 breaths/min
same,Peak exercise work rate,"[2]; 87.5 mg twice daily, 26-week",124 ± 32 W
same,Resting diastolic blood pressure,"[2]; 87.5 mg twice daily, 26-week",65.3 ± 9.9 mmHg
same,Resting heart rate,"[2]; 87.5 mg twice daily, 26-week",86.6 ± 15.4 bpm
same,Resting oxygen saturation,"[2]; 87.5 mg twice daily, 26-week",93.3 ± 3.5%
same,Resting systolic blood pressure,"[2]; 87.5 mg twice daily, 26-week",110.5 ± 12.0 mmHg
same,Anaerobic threshold VE/VCO2,"[2]; 87.5 mg twice daily, Baseline",34.3 ± 4.9
same,Anaerobic threshold oxygen consumption,"[2]; 87.5 mg twice daily, Baseline",1039 ± 301 mL/min
same,Anaerobic threshold work,"[2]; 87.5 mg twice daily, Baseline",66.2 ± 26 W
same,Peak exercise heart rate,"[2]; 87.5 mg twice daily, Baseline",165 ± 20 bpm
same,Peak exercise minute ventilation,"[2]; 87.5 mg twice daily, Baseline",71 ± 21 L/min
same,Peak exercise oxygen consumption,"[2]; 87.5 mg twice daily, Baseline",1562 ± 437 mL/min
same,Peak exercise oxygen saturation,"[2]; 87.5 mg twice daily, Baseline",89.2 ± 5.3%
same,Peak exercise respiratory rate,"[2]; 87.5 mg twice daily, Baseline",51 ± 11 breaths/min
same,Peak exercise work rate,"[2]; 87.5 mg twice daily, Baseline",120 ± 32 W
same,Resting diastolic blood pressure,"[2]; 87.5 mg twice daily, Baseline",68.4 ± 9.5 mmHg
same,Resting heart rate,"[2]; 87.5 mg twice daily, Baseline",87.5 ± 15.3 bpm
same,Resting oxygen saturation,"[2]; 87.5 mg twice daily, Baseline",92.8 ± 3.9%
same,Resting systolic blood pressure,"[2]; 87.5 mg twice daily, Baseline",112.3 ± 12.1 mmHg
same,"Resting oxygen saturation, change",[2]; [3],0.5 ± 2.4%
same,"Resting oxygen saturation, change",[2]; [4],+0.5%
same,"Resting diastolic blood pressure, change",[2]; [3],−2.9 ± 9.7 mmHg
same,"Resting diastolic blood pressure, change",[2]; [4],−2.9 mmHg
same,"Anaerobic threshold VE/VCO2, change",[2]; [3],−0.76 ± 3.6^
same,"Anaerobic threshold VE/VCO2, change",[2]; [4],−0.8
same,"Anaerobic threshold oxygen consumption (VO2 at VAT), change","[2]; 87.5 mg twice daily, Change baseline to 26-week, p 0.023 vs placebo",29.7 ± 177 mL/min
same,"Anaerobic threshold work (work rate at VAT), change","[2]; 87.5 mg twice daily, Change baseline to 26-week, p 0.029 vs placebo",3.5 ± 15 W
same,"Peak exercise oxygen consumption (peak VO2, VO2 max), change","[2]; 87.5 mg twice daily, Change baseline to 26-week, p 0.071 vs placebo",44 ± 245 mL/min
same,"Resting systolic blood pressure, change","[2]; 87.5 mg twice daily, Change baseline to 26-week, p 0.18 vs placebo",−1.8 ± 12.2 mmHg
same,"Resting heart rate, change","[2]; 87.5 mg twice daily, Change baseline to 26-week, p 0.78 vs placebo",−0.9 ± 12.7 bpm
same,"Peak exercise work rate, change","[2]; 87.5 mg twice daily, Change baseline to 26-week, p 0.85 vs placebo",3.2 ± 14 W
same,"VE/VCO2 measured at VAT, decreased by, percent",[2]; [5],2.1%
same,"Work rate at VAT improved by, percent",[2]; [5],5.5% and 5.2%
same,"Change in resting heart rate, respiratory rate, or systolic blood pressure, udenafil vs placebo",[2]; baseline to 26-week,no difference
same,"Diastolic blood pressure in the udenafil group, in words",[2]; baseline to 26-week,small but statistically significant decrease
same,"Resting oxygen saturation in the udenafil group, in words",[2]; baseline to 26-week,small but statistically significant increase
same,"Oxygen consumption at peak exercise (peak VO2), difference udenafil vs placebo",[2]; p=0.071,did not reach statistical significance; also recorded: not associated with a statistically significant improvement
